# Data as given in US6569805B1, “Herbicidal compositions” (Aventis CropScience GmbH, priority 1999, dated 2003).
# Values joined by “and” are separate entries in the source; they are usually repeats but may differ in a detail not shown here. Equal entries are not always repeated.
# What was measured:
# Assay type in all cases: in vivo
# Cyperus esculentus = assay: Greenhouse test under paddy rice conditions, visual scoring about 3 weeks after application (Example 4); details: herbicide 0.004 kg/ha without vegetable oil
# Method: (§1) Rice, and Cyperus esculentus as typical harmful plant, were grown in a greenhouse under paddy rice conditions (flooding level of the water 2-3 cm) in sealed plastic pots and sprayed with an active substance preparation at an application rate of (converted) 600 l/ha. The test plants were then placed in the greenhouse under optimal growth conditions and kept like this over the entire test period. Approximately 3 weeks after the application, they were evaluated by means of visually scoring the damage to the plants in comparison with the untreated control, using the following scheme: 100%=total destruction, 0%=no action. The test results are shown in the table hereinbelow, the action of the herbicide/safener combination and of the vegetable oil when used separately being stated in brackets: […]
# Rice = assay: as above; details: crop plant, herbicide 0.004 kg/ha without vegetable oil
# Method: as §1
# Chenopodium album = assay: Greenhouse pot test, post-emergence spray, damage evaluated visually 2-3 weeks after treatment (Example 3); details: herbicide 0.015 kg/ha without vegetable oil
# Method: (§2) Seeds or rhizome pieces of monocotyledonous and dicotyledonous harmful plants and useful plants were placed in sandy loam in pots of diameter 9 to 13 cm and covered with soil. The pots were kept in a greenhouse under optimal conditions. In the two- to three-leaf stage, i.e. approximately three weeks after cultivation has begun, the test plants were treated with the herbicides and vegetable oil in the form of aqueous dispersions or suspensions or emulsions and the green parts of the plant were sprayed with various dosage rates at an application rate of (converted) 300 l of water/ha. To grow the plants further, the pots were kept in the greenhouse under optimal conditions. The damage to the useful plants and harmful plants was evaluated visually 2-3 weeks after the treatment using the following scheme: 100%=total destruction, 0%=no action. The test results are shown in the table hereinbelow, the action of the herbicide/safener combination and of the vegetable oil when used separately being stated in brackets: […]
# Sorghum halepense = assay: as above; details: herbicide 0.015 kg/ha without vegetable oil
# Method: as §2
# Echinochloa crus galli = assay: as above; details: herbicide 0.015 kg/ha without vegetable oil
# Method: as §2
SMILES,"CYPES Action (%), herbicide used separately (first value in brackets) (Cyperus esculentus) [%]","Rice Action (%), herbicide used separately (first value in brackets) (Rice)","CHEAL Action (%), herbicide used separately (first value in brackets) (Chenopodium album)","SORHA Action (%), herbicide used separately (first value in brackets) (Sorghum halepense)","ECHCG Action (%), herbicide used separately (first value in brackets) (Echinochloa crus galli)"
"CCOc1ccccc1OS(=O)(=O)NC(=O)Nc1nc(OC)cc(OC)n1 [A13, 1-(4,6-dimethoxypyrimidin-2-yl)-3-(2-ethoxyphenoxysulfonyl)urea]",35,0 (0 + 0) %,–,–,–
"COc1cc(OC)nc(NC(=O)NS(=O)(=O)c2ncccc2C(=O)N(C)C)n1 [V1, Nicosulfuron]",–,–,(0 + 0) %,(0 + 0) %,0 (0 + 0) % and 0%
